Measured values from patent US12071434B2, “Heterocyclic compound” (Takeda Pharmaceutical Company Limited, priority 2018, dated 2024).

These molecules were tested against T1, human orexin type 2 receptor (Homo sapiens, UniProt O43614) (assay: Measurement of orexin type 2 receptor agonist activity (calcium fluorescence, Fluo-4 AM, FDSS) in CHO cells forcibly expressing human OX2 receptor). Conditions: test compound 3 μM, DMSO = 0%, orexin A (human) 10 nM = 100%.
T1 construct: expressed in transfected cells
T1 sequence (O43614 1-444): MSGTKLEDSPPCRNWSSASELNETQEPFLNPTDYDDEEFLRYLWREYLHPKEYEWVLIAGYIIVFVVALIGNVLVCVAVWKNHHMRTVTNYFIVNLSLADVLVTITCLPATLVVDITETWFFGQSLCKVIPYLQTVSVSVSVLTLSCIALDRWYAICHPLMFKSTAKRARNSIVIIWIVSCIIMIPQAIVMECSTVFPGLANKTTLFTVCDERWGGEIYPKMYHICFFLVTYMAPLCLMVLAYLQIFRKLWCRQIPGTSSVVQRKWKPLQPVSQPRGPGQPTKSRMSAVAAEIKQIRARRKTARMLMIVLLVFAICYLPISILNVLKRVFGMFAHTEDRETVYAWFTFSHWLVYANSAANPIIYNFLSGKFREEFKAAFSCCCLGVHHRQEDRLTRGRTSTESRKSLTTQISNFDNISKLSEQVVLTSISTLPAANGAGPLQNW
Type: cell-based
Outline: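 CHO-dhfr cells stably expressing human OX2 receptor, loaded with Fluo-4 AM plus probenecid for 30 min at 37 °C, then 30 min at room temperature. Calcium fluorescence read for about 2 min 40 s after compound addition. Activity (%) scaled between DMSO (0%) and 10 nM human orexin A (100%).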

0X2R agonist activity (3 μM, %) [%]	Compound
101	Cc1cc(F)c2n(c1=O)[C@@H](Cc1cccc(-c3ccccc3)c1)[C@@H](NS(C)(=O)=O)CC2 (racemic) [Example 21, rac-N-{(3S,4S)-4-[([1,1′-biphenyl]-3-yl)methyl]-9-fluoro-7-methyl-6-oxo-1,3,4,6-tetrahydro-2H-quinolizin-3-yl}methanesulfonamide]
98	CCc1ccc2n(c1=O)C(Cc1cccc(-c3cc(F)cc(F)c3)c1)C(NS(C)(=O)=O)CC2 (racemic) [Example 101, rac-N-{(3S,4S)-4-[(3′,5′-difluoro[1,1′-biphenyl]-3-yl)methyl]-7-ethyl-6-oxo-1,3,4,6-tetrahydro-2H-quinozilin-3-yl}methanesulfonamide]
82	CCS(=O)(=O)NC1CCc2c(C)nn(C)c(=O)c2C1Cc1cccc(-c2ccccc2)c1 (racemic) [Example 97, rac-N-{(5R,6S)-5-[([1,1′-biphenyl]-3-yl)methyl]-1,3-dimethyl-4-oxo-3,4,5,6,7,8-hexahydrophthlalazin-6-yl}ethanesulfonamide]
100	CCn1c(C)nc2c(c1=O)[C@@H](Cc1cccc(-c3cccc(C)c3)c1)[C@@H](NS(C)(=O)=O)CC2 (racemic) [Example 78, rac-N-{(5R,6S)-3-ethyl-2-methyl-5-[(3′-methyl[1,1′-biphenyl]-3-yl)methyl]-4-oxo-3,4,5,6,7,8-hexahydroquinazolin-6-yl}methanesulfonamide]
83	Cc1ccc2n(c1=O)[C@@H](Cc1cccc(-c3cc(F)cc(F)c3)n1)[C@@H](NS(C)(=O)=O)CC2 (racemic) [Example 60, rac-N-[(3S,4S)-4-{[6-(3,5-difluorophenyl)pyridin-2-yl]methyl}-7-methyl-6-oxo-1,3,4,6-tetrahydro-2H-quinolizin-3-yl]methanesulfonamide]
99	CCc1ccc2n(c1=O)C(Cc1cccc(-c3ccccc3)c1)C(NS(C)(=O)=O)CC2 (racemic) [Example 27, rac-N-{(3S,4S)-4-[([1,1′-biphenyl]-3-yl)methyl]-7-ethyl-6-oxo-1,3,4,6-tetrahydro-2H-quinozilin-3-yl}methanesulfonamide]
89	CCc1ccc2n(c1=O)[C@@H](Cc1cccc(-c3ccccc3)c1F)[C@@H](NS(C)(=O)=O)CC2 (racemic) [Example 104, rac-N-{(3S,4S)-7-ethyl-4-[(2-fluoro[1,1′-biphenyl]-3-yl)methyl]-6-oxo-1,3,4,6-tetrahydro-2H-quinolizin-3-yl}methanesulfonamide]
71	Cc1nn(C)c(=O)c2c1CC[C@H](NS(C)(=O)=O)[C@@H]2Cc1cccc(-c2ccccc2)c1 (racemic) [Example 96, rac-N-{(5R,6S)-5-[([1,1′-biphenyl]-3-yl)methyl]-1,3-dimethyl-4-oxo-3,4,5,6,7,8-hexahydrophthalazin-6-yl}methanesulfonamide]
98	CCn1ccc2c(c1=O)[C@@H](Cc1cccc(-c3cccc(C)c3F)c1)[C@@H](NS(C)(=O)=O)CC2 (racemic) [Example 120, rac-N-{(7S,8R)-2-ethyl-8-[(2′-fluoro-3′-methyl[1,1′-biphenyl]-3-yl)methyl]-1-oxo-1,2,5,6,7,8-hexahydroisoquinolin-7-yl}methanesulfonamide]
105	COc1ccc2n(c1=O)[C@@H](Cc1cccc(-c3ccccc3)c1)[C@@H](NS(C)(=O)=O)CC2 (racemic) [Example 34, rac-N-{(3S,4S)-4-[([1,1′-biphenyl]-3-yl)methyl]-7-methoxy-6-oxo-1,3,4,6-tetrahydro-2H-quinolizin-3-yl}methanesulfonamide]
100	CN(C)c1ccc2n(c1=O)[C@@H](Cc1cccc(-c3ccccc3)c1)[C@@H](NS(C)(=O)=O)CC2 (racemic) [Example 31, rac-N-[(3S,4S)-4-[([1,1′-biphenyl]-3-yl)methyl]-7-(dimethylamino)-6-oxo-1,3,4,6-tetrahydro-2H-quinolizin-3-yl]methanesulfonamide]
91	Cn1cc2n(c1=O)[C@@H](Cc1cccc(-c3cc(F)cc(F)c3)c1)[C@@H](NS(C)(=O)=O)CC2 (racemic) [Example 201, rac-N-{(5S,6S)-5-[(3′,5′-difluoro[1,1′-biphenyl]-3-yl)methyl]-2-methyl-3-oxo-2,3,5,6,7,8-hexahydroimidazo[1,5-a]pyridin-6-yl}methanesulfonamide]

Continued, molecule first:

Compound	0X2R agonist activity (3 μM, %) [%]
CC(C)n1ccc2c(c1=O)[C@@H](Cc1cccc(-c3ccccc3)n1)[C@@H](NS(C)(=O)=O)CC2 (racemic) [Example 148, rac-N-[(7S,8R)-1-oxo-8-[(6-phenylpyridin-2-yl)methyl]-2-(propan-2-yl)-1,2,5,6,7,8-hexahydroisoquinolin-7-yl]methanesulfonamide]	104
CCn1ccc2c(c1=O)[C@@H](Cc1cccc(-c3ccccc3)c1F)[C@@H](NS(C)(=O)=O)CC2=O (racemic) [Example 163, rac-N-{(7S,8R)-2-ethyl-8-[(2-fluoro[1,1′-biphenyl]-3-yl)methyl]-1,5-dioxo-1,2,5,6,7,8-hexahydroisoquinolin-7-yl}methanesulfonamide]	94
CCn1ccc2c(c1=O)[C@@H](Cc1cccc(-c3ccccc3)c1F)[C@@H](NS(C)(=O)=O)C[C@@H]2F (racemic) [Example 167, rac-N-{(5S,7S,8R)-2-ethyl-5-fluoro-8-[(2-fluoro[1,1′-biphenyl]-3-yl)methyl]-1-oxo-1,2,5,6,7,8-hexahydroisoquinolin-7-yl}methanesulfonamide]	93
CCS(=O)(=O)N[C@H]1CCc2ncn(C(C)C)c(=O)c2[C@H]1Cc1cccc(-c2cccc(F)c2F)c1 [Example 200, N-[(5R,6S)-5-[(2′,3′-difluoro[1,1′-biphenyl]-3-yl)methyl]-4-oxo-3-(propan-2-yl)-3,4,5,6,7,8-hexahydroquinazolin-6-yl]ethanesulfonamide]	89
Cc1ccc2n(c1=O)C(Cc1cccc(-c3cccc(F)c3)c1)C(NC(=O)[C@@H]1CCCO1)CC2 (mixture of isomers) [Example 26, (2S)-N-{(3SR,4SR)-4-[(3′-fluoro[1,1′-biphenyl]-3-yl)methyl]-7-methyl-6-oxo-1,3,4,6-tetrahydro-2H-quinolizin-3-yl}oxolane-2-carboxamide]	101
CCc1ccc(C[C@H]2[C@@H](NS(C)(=O)=O)CCc3ccc(C)c(=O)n32)cc1 (racemic) [Example 216, rac-N-{(3S,4S)-4-[(4-ethylphenyl)methyl]-7-methyl-6-oxo-1,3,4,6-tetrahydro-2H-quinolizin-3-yl}methanesulfonamide]	76
CC(C)n1cnc2c(c1=O)[C@@H](Cc1cccc(-c3cccc(F)c3F)c1)[C@@H](NS(=O)(=O)C1CC1)CC2 [Example 193, N-[(5R,6S)-5-[(2′,3′-difluoro[1,1′-biphenyl]-3-yl)methyl]-4-oxo-3-(propan-2-yl)-3,4,5,6,7,8-hexahydroquinazolin-6-yl]cyclopropanesulfonamide]	97
CCS(=O)(=O)N[C@H]1CCc2ncn(C(C)C)c(=O)c2[C@H]1Cc1cccc(-c2cc(C)cc(C)n2)c1 (racemic) [Example 102, rac-N-[(5R,6S)-5-{[3-(4,6-dimethylpyridin-2-yl)phenyl]methyl}-4-oxo-3-(propan-2-yl)-3,4,5,6,7,8-hexahydroquinazolin-6-yl]ethanesulfonamide]	100
Cc1ccc2n(c1=O)C(Cc1cccc(-c3cccc(F)c3)c1F)C(NC(=O)[C@@H]1CCCO1)CC2 (stereo in doubt) [Example 54, (2S)-N-{(3S*,4S*)-4-[(2,3′-difluoro[1,1′-biphenyl]-3-yl)methyl]-7-methyl-6-oxo-1,3,4,6-tetrahydro-2H-quinolizin-3-yl}oxolane-2-carboxamide]	97
CC(C)n1cnc2c(c1=O)[C@@H](Cc1cccc(-c3cccc(F)c3)c1)[C@@H](NS(=O)(=O)C1CC1)CC2 [Example 188, N-[(5R,6S)-5-[(3′-fluoro[1,1′-biphenyl]-3-yl)methyl]-4-oxo-3-(propan-2-yl)-3,4,5,6,7,8-hexahydroquinazolin-6-yl]cyclopropanesulfonamide]	107
CC(C)n1cnc2c(c1=O)[C@@H](Cc1cccc(-c3ccccc3F)c1F)[C@@H](NS(C)(=O)=O)CC2 (relative stereo) [Example 149, rel-N-[(5R,6S)-5-[(2,2′-difluoro[1,1′-biphenyl]-3-yl)methyl]-4-oxo-3-(propan-2-yl)-3,4,5,6,7,8-hexahydroquinazolin-6-yl]methanesulfonamide]	105
CCn1ccc2c(c1=O)[C@@H](Cc1cccc(-c3cccn(C)c3=O)c1)[C@@H](NS(C)(=O)=O)CC2 (racemic) [Example 129, rac-N-[(7S,8R)-2-ethyl-8-{[3-(1-methyl-2-oxo-1,2-dihydropyridin-3-yl)phenyl]methyl}-1-oxo-1,2,5,6,7,8-hexahydroisoquinolin-7-yl]methanesulfonamide]	98
CCn1ccc2c(c1=O)[C@@H](Cc1cccc(-c3cccc(F)c3F)c1)[C@@H](NS(C)(=O)=O)CC2 (racemic) [Example 124, rac-N-{(7S,8R)-8-[(2′,3′-difluoro[1,1′-biphenyl]-3-yl)methyl]-2-ethyl-1-oxo-1,2,5,6,7,8-hexahydroisoquinolin-7-yl}methanesulfonamide]	105
